Experimental data taken from PubChem BioAssay AID2060600 (Molecular Pharmacology Branch, DTP, NCI, 2025).

Tested on: 996289-038-R-J1-PDC complex spheroid viability
Experiment: Anticancer human tumor 996289-038-R-J1-PDC patient-derived colon adenocarcinoma cell line growth inhibition [CLK]
Conditions: for IC50: curve of first compound; for viability, T/C: stronger effect = lower value
Text: A high-throughput screen of multi-cell type tumor spheroids was designed to identify active combinations of […] and targeted small molecules. Complex spheroids include a stromal component modeled by human endothelial cells (HUVEC) and fibroblasts modeled by human mesenchymal stem cells (MSCs). The concentration ranges selected for each drug and investigational agent were based upon clinically achievable concentrations if the clinical Cmax of the agent was known.
Compounds. The drugs and investigational agents: cirtuvivint (SM08502; NSC835563), CC-671 (NSC850746), vemurafenib (NSC761431), tapotoclax (NSC804041), sotorasib (NSC818433), adagrasib (NSC831453), MRTX-1133 (NSC836407), BAY2416964 (NSC825713), copanlisib (NSC816437), inavolisib (NSC800729), abemaciclib (NSC768073), osimertinib (NSC779217), entinostat (NSC756642), eltanexor (KPT-8602, NSC794443), venetoclax (NSC766270), ceralasertib (NSC777638), bortezomib (NSC756655), olaparib (NSC753686), talazoparib (NSC767125), alisertib (NSC759677), peposertib (NSC802822), gemcitabine (NSC613327), 5-fluorouracil (NSC19893), SN-38 (NSC673596), oxaliplatin (NSC266046), paclitaxel (NSC125973), and doxorubicin (NSC123127), were obtained from the National Cancer Institute (NCI) Developmental Therapeutics Program Chemical Repository. The FDA-approved anticancer drug set is available from the Developmental Therapeutics Program at https://dtp.cancer.gov/organization/dscb/obtaining/available plates.htm. […] The stock solutions were prepared in dimethyl sulfoxide (DMSO, Sigma-Aldrich, St. Louis, MO, cat. D2650), except for the platinum complexes which were prepared in saline (Quality Biological, Gaithersburg, MD, cat. 114-055-101), at 800-fold the tested concentration and stored at -70 degrees C prior to their use. All drugs and investigational agents were tested over a range starting from a high concentration at or near the clinical Cmax and decreasing in half-log increments. If the clinical Cmax for an agent had not been determined, the highest concentration tested was 10 microM.
Cell Culture. All cells were maintained in an incubator at 37 degrees C and 5% CO2 with 95% humidity. The PDC lines were cultured according to standard operating procedures established by the NCI PDMR. Briefly, all PDCs were thawed and cultured in Matrigel-coated flasks prepared with a working solution of 1X Ham's F-12 nutrient mix, without supplementation (Invitrogen, Waltham, MA, cat. 11765054), 100 U/mL penicillin-streptomycin (Invitrogen, cat. 15140122), and 2.5% Matrigel (Corning Inc., Corning, NY, cat. 354248) for the first three passages. The 947758-054-R-J2-PDC line was cultured in 6B/Colon 1A media, which includes advanced DMEM/F-12 (Thermo Fisher Scientific, cat. 12634028), 10 mM HEPES (Thermo Fisher Scientific, cat. 15630080), 1X GlutaMAX supplement (Thermo Fisher Scientific, cat. 35050061), 0.1 mg/mL primocin (InvivoGen, cat. ant-pm-2), 10% defined fetal bovine serum, heat inactivated (HyClone Laboratories Inc., cat. SH30070.03HI), 1.25 mM N-Acetyl-L-cysteine (Sigma-Aldrich, cat. A9165), 10 mM nicotinamide (Sigma-Aldrich, cat. N0636), 1X B-27 supplement (Thermo Fisher Scientific, cat. 17504044), 1X N-2 supplement (Thermo Fisher Scientific, cat. 17502048), and 10 microM Y-27632 dihydrochloride (Tocris Bioscience, cat. 1254). The 876862-298-R-J1-PDC was cultured in 6E media, which includes all 6B/Colon 1A media components plus 50% L-WRN conditioned media (ATCC, cat. CRL-3276), 50 ng/mL recombinant human EGF recombinant protein (hEGF; Thermo Fisher Scientific, cat. PHG0311), 10 ng/mL recombinant human fibroblast growth factor 10 (hGFG-10; PeproTech, cat. 100-26), 1 ng/mL recombinant human fibroblast growth factor 2 (hFGF-2; PeproTech, cat. 100-18B), and 1 µM prostaglandin E2 (PGE2; Tocris, cat. 2296). The 227483-062-R1-J1-PDC line was cultured in Panc media, containing all 6E components except hFGF-2, with the addition of 500 nM SB-431542 (Selleckchem, cat. S1067) and 10 nM gastrin (Tocris, cat. 3006). […]
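Further: spheroids exposed to the agents for 7 days before readout.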

**Q.** For `CC(CO)NC(=O)c1cc(-c2ccc(Cl)cc2)nn(-c2cnn(C)c2)c1=O` (configuration not stated) + CNC(=O)c1ccc(Nc2nc(OC3CCCC3)c3c(-c4ccc5nc(C)oc5c4)c[nH]c3n2)c(OC)c1, which IC50 (second compound 0.0316 µM) is on record?
**A.** > 10 µM

**Q.** What about the IC50 (second compound 0.1 µM) of the same compound?
**A.** > 10 µM

**Q.** What about the IC50 (second compound 0.316 µM) of the same compound?
**A.** > 10 µM

**Q.** What about the IC50 (second compound 1 µM) of the same compound?
**A.** > 10 µM

**Q.** What about the IC50 (second compound 3.16 µM) of the same compound?
**A.** > 10 µM

**Q.** And the IC50 (second compound 10 µM)?
**A.** > 10 µM

**Q.** What about the viability, T/C (second compound 0.0316 µM, first compound 0.0316 µM) of the same compound?
**A.** 117%

**Q.** What about the viability, T/C (second compound 0.0316 µM, first compound 0.1 µM) of the same compound?
**A.** 111%

**Q.** What about the viability, T/C (second compound 0.0316 µM, first compound 0.316 µM) of the same compound?
**A.** 108%

**Q.** And the viability, T/C (second compound 0.0316 µM, first compound 1 µM)?
**A.** 117%

**Q.** What about the viability, T/C (second compound 0.0316 µM, first compound 3.16 µM) of the same compound?
**A.** 109%

**Q.** What about the viability, T/C (second compound 0.0316 µM, first compound 10 µM) of the same compound?
**A.** 99.6%

**Q.** And the viability, T/C (second compound 0.1 µM, first compound 0.0316 µM)?
**A.** 131%

**Q.** What about the viability, T/C (second compound 0.1 µM, first compound 0.1 µM) of the same compound?
**A.** 113%

**Q.** What about the viability, T/C (second compound 0.1 µM, first compound 0.316 µM) of the same compound?
**A.** 116%

**Q.** What about the viability, T/C (second compound 0.1 µM, first compound 1 µM) of the same compound?
**A.** 95.4%

**Q.** And the viability, T/C (second compound 0.1 µM, first compound 3.16 µM)?
**A.** 101%

**Q.** And the viability, T/C (second compound 0.1 µM, first compound 10 µM)?
**A.** 83.7%

**Q.** And the viability, T/C (second compound 0.316 µM, first compound 0.0316 µM)?
**A.** 79.8%

**Q.** And the viability, T/C (second compound 0.316 µM, first compound 0.1 µM)?
**A.** 76.9%

**Q.** What about the viability, T/C (second compound 0.316 µM, first compound 0.316 µM) of the same compound?
**A.** 73.2%

**Q.** And the viability, T/C (second compound 0.316 µM, first compound 1 µM)?
**A.** 71.4%

**Q.** And the viability, T/C (second compound 0.316 µM, first compound 3.16 µM)?
**A.** 72.7%

**Q.** What about the viability, T/C (second compound 0.316 µM, first compound 10 µM) of the same compound?
**A.** 68.9%

**Q.** And the viability, T/C (second compound 1 µM, first compound 0.0316 µM)?
**A.** 64.2%

**Q.** And the viability, T/C (second compound 1 µM, first compound 0.1 µM)?
**A.** 63.7%

**Q.** And the viability, T/C (second compound 1 µM, first compound 0.316 µM)?
**A.** 57.8%

**Q.** What about the viability, T/C (second compound 1 µM, first compound 1 µM) of the same compound?
**A.** 57.5%

**Q.** What about the viability, T/C (second compound 1 µM, first compound 3.16 µM) of the same compound?
**A.** 57.5%

**Q.** And the viability, T/C (second compound 1 µM, first compound 10 µM)?
**A.** 49%

**Q.** And the viability, T/C (second compound 3.16 µM, first compound 0.0316 µM)?
**A.** 58.2%

**Q.** What about the viability, T/C (second compound 3.16 µM, first compound 0.1 µM) of the same compound?
**A.** 57.6%

**Q.** What about the viability, T/C (second compound 3.16 µM, first compound 0.316 µM) of the same compound?
**A.** 55.3%

**Q.** What about the viability, T/C (second compound 3.16 µM, first compound 1 µM) of the same compound?
**A.** 54.7%

**Q.** What about the viability, T/C (second compound 3.16 µM, first compound 3.16 µM) of the same compound?
**A.** 56.9%

**Q.** What about the viability, T/C (second compound 3.16 µM, first compound 10 µM) of the same compound?
**A.** 48.3%

**Q.** What about the viability, T/C (second compound 10 µM, first compound 0.0316 µM) of the same compound?
**A.** 52.4%

**Q.** And the viability, T/C (second compound 10 µM, first compound 0.1 µM)?
**A.** 56.9%

**Q.** What about the viability, T/C (second compound 10 µM, first compound 0.316 µM) of the same compound?
**A.** 56.2%

**Q.** And the viability, T/C (second compound 10 µM, first compound 1 µM)?
**A.** 58.5%

**Q.** And the viability, T/C (second compound 10 µM, first compound 3.16 µM)?
**A.** 55.5%

**Q.** What about the viability, T/C (second compound 10 µM, first compound 10 µM) of the same compound?
**A.** 44.8%
